According to PubChem BioAssay AID330 (DTP/NCI, 2004):
Several values for one entry are separate records, joined by “and”; a condition that tells them apart may be missing. Equal entries are not always repeated. Inconclusive results and toxic doses are left out. How the source made its calls: active means survival T/C of 150% or more; inactive means T/C below 125% in these data. Peptide text beside a SMILES is read from it.

System: P388 leukemia ip, CD2F1 mice, survival T/C
Assay: NCI In Vivo Anticancer Drug Screen. Data for tumor model P388 Leukemia (intraperitoneal) in CD2F1 (CDF1) mice
Details: endpoint: median survival time, higher = longer survival
In short: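 Mice carrying the transplanted tumor received test compound or vehicle. Survival was recorded in each group, and the value is the treated-group measurement divided by that of the vehicle-treated control group.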

[1] = dose: 50.0 mg/kg/injection, schedule: Q01DX009 (ip), vehicle: saline
[2] = dose: 50.0 mg/kg/injection, schedule: Q01DX009 (ip), vehicle: Klucel (hydroxypropylcellulose) (HPC)
[3] = dose: 100.0 mg/kg/injection, schedule: Q01DX009 (ip), vehicle: Klucel (hydroxypropylcellulose) (HPC)
[4] = dose: 200.0 mg/kg/injection, schedule: Q01DX009 (ip), vehicle: Klucel (hydroxypropylcellulose) (HPC)
[5] = dose: 60.0 mg/kg/injection, schedule: Q01DX005 (ip), vehicle: saline with Tween-80
[6] = dose: 120.0 mg/kg/injection, schedule: Q01DX005 (ip), vehicle: saline with Tween-80
[7] = dose: 240.0 mg/kg/injection, schedule: Q01DX005 (ip), vehicle: saline with Tween-80
[8] = dose: 50.0 mg/kg/injection, schedule: Q01DX005 (ip), vehicle: saline with Tween-80
[9] = dose: 100.0 mg/kg/injection, schedule: Q01DX005 (ip), vehicle: saline with Tween-80
[10] = dose: 200.0 mg/kg/injection, schedule: Q01DX005 (ip), vehicle: saline with Tween-80
[11] = dose: 100.0 mg/kg/injection, schedule: Q04DX003 (ip), vehicle: saline with Tween-80
[12] = dose: 200.0 mg/kg/injection, schedule: Q04DX003 (ip), vehicle: saline with Tween-80
[13] = dose: 400.0 mg/kg/injection, schedule: Q04DX003 (ip), vehicle: saline with Tween-80
[14] = dose: 12.5 mg/kg/injection, schedule: Q01DX009 (ip), vehicle: Klucel (hydroxypropylcellulose) (HPC)
[15] = dose: 25.0 mg/kg/injection, schedule: Q01DX009 (ip), vehicle: Klucel (hydroxypropylcellulose) (HPC)
[16] = dose: 60.0 mg/kg/injection, schedule: Q01DX005 (ip), vehicle: saline
[17] = dose: 120.0 mg/kg/injection, schedule: Q01DX005 (ip), vehicle: saline
[18] = dose: 240.0 mg/kg/injection, schedule: Q01DX005 (ip), vehicle: saline

Measured: T/C

Oc1ccc2c(c1)OC1(c3ccccc3)CC2N=CN1 (stereo unspecified)
inactive: dose: 12.5 mg/kg/injection, schedule: Q01DX009 (ip), vehicle: saline 103 % of control | dose: 25.0 mg/kg/injection, schedule: Q01DX009 (ip), vehicle: saline 95 % of control | [1] 107 % of control | dose: 50.0 mg/kg/injection, schedule: Q01DX009 (ip), vehicle: suspension in saline 98 % of control and 92 % of control | dose: 100.0 mg/kg/injection, schedule: Q01DX009 (ip), vehicle: suspension in saline 98 % of control and 92 % of control | dose: 200.0 mg/kg/injection, schedule: Q01DX009 (ip), vehicle: suspension in saline 99 % of control

CCn1c2ccccc2c2cc(N=Nc3cc4ccccc4cc3O)ccc21
inactive: [2] 104 % of control | [3] 100 % of control | [4] 104 % of control

O=C(O)C1C2CC3C(OC(=O)C31)C2Br (stereo unspecified)
inactive: [5] 100 % of control | [6] 97 % of control | [7] 96 % of control

CCCCCCN(CCCCCC)CC(O)c1cc(-c2ccccc2)nc2ccccc12 (stereo unspecified)
inactive: [8] 100 % of control | [9] 103 % of control | [10] 105 % of control

Cc1nc2cc3ccccc3cc2nc1C
inactive: dose: 50.0 mg/kg/injection, schedule: Q01DX005 (ip), vehicle: Klucel (hydroxypropylcellulose) (HPC) 100 % of control | dose: 100.0 mg/kg/injection, schedule: Q01DX005 (ip), vehicle: Klucel (hydroxypropylcellulose) (HPC) 99 % of control | dose: 200.0 mg/kg/injection, schedule: Q01DX005 (ip), vehicle: Klucel (hydroxypropylcellulose) (HPC) 100 % of control

CCCCC(=O)c1c(O)c2ccccc2oc1=O
inactive: dose: 15.0 mg/kg/injection, schedule: Q01DX005 (ip), vehicle: saline with Tween-80 100 % of control | dose: 30.0 mg/kg/injection, schedule: Q01DX005 (ip), vehicle: saline with Tween-80 97 % of control | [5] 116 % of control and 94 % of control

COc1ccc(C2N(c3ccccc3)CCN2c2ccccc2)cc1
inactive: [8] 99 % of control | [9] 93 % of control | [10] 93 % of control

O=C(NC(=O)C(F)(F)C(F)(F)F)Nc1cccc(F)c1
inactive: [3] 106 % of control | [4] 100 % of control

CC(=O)n1ccc(=O)[nH]c1=O
inactive: dose: 50.0 mg/kg/injection, schedule: Q01DX009 (ip), vehicle: saline with Tween-80 87 % of control | dose: 100.0 mg/kg/injection, schedule: Q01DX009 (ip), vehicle: saline with Tween-80 96 % of control | [11] 100 % of control | dose: 200.0 mg/kg/injection, schedule: Q01DX009 (ip), vehicle: saline with Tween-80 96 % of control | [12] 96 % of control | [13] 96 % of control

Nc1ccc(NCC2CCCN3CCCCC23)c2c(=O)c3ccccc3sc12 (stereo unspecified)
inactive: dose: 13.25 mg/kg/injection, schedule: Q01DX005 (ip), vehicle: saline with Tween-80 104 % of control | dose: 26.5 mg/kg/injection, schedule: Q01DX005 (ip), vehicle: saline with Tween-80 101 % of control | dose: 53.0 mg/kg/injection, schedule: Q01DX005 (ip), vehicle: saline with Tween-80 103 % of control | dose: 90.0 mg/kg/injection, schedule: Q01DX005 (ip), vehicle: saline with Tween-80 94 % of control | dose: 106.0 mg/kg/injection, schedule: Q01DX005 (ip), vehicle: saline with Tween-80 100 % of control | dose: 180.0 mg/kg/injection, schedule: Q01DX005 (ip), vehicle: saline with Tween-80 94 % of control | dose: 360.0 mg/kg/injection, schedule: Q01DX005 (ip), vehicle: saline with Tween-80 95 % of control

COc1cc2c(c(OC)c1OC)CCCC2=O
inactive: [2] 111 % of control | [3] 113 % of control | [4] 117 % of control

CC(=O)OC1CN(c2ccc(Br)cc2)CC(OC(C)=O)CN(c2ccc(Br)cc2)C1 (stereo unspecified)
inactive: [2] 99 % of control | [3] 100 % of control | [4] 97 % of control

CN(C)CC1C(=O)C2CCC1C2 (stereo unspecified)
inactive: [8] 98 % of control | [9] 98 % of control | [10] 108 % of control

CC(NNC(=S)N1CCN(c2ccccn2)CC1)c1cc2ccccc2cn1 (stereo unspecified)
inactive: dose: 12.5 mg/kg/injection, schedule: Q04DX003 (ip), vehicle: Klucel (hydroxypropylcellulose) (HPC) 96 % of control | dose: 25.0 mg/kg/injection, schedule: Q04DX003 (ip), vehicle: Klucel (hydroxypropylcellulose) (HPC) 88 % of control | dose: 50.0 mg/kg/injection, schedule: Q04DX003 (ip), vehicle: Klucel (hydroxypropylcellulose) (HPC) 88 % of control | dose: 400.0 mg/kg/injection, schedule: Q04DX003 (ip), vehicle: Klucel (hydroxypropylcellulose) (HPC) 86 % of control

Cc1ccc2nc(N)nnc2c1
inactive: [2] 104 % of control | [3] 100 % of control

CN(C(=O)c1ccc(N)cc1)C1CCN(C2CCCCC2)C1 (stereo unspecified)
inactive: [2] 103 % of control | [3] 101 % of control

Cc1cn(C2CC(O)C(Cn3ccc4ccccc43)O2)c(=O)[nH]c1=O (stereo unspecified)
inactive: dose: 1.56 mg/kg/injection, schedule: Q01DX009 (ip), vehicle: Klucel (hydroxypropylcellulose) (HPC) 103 % of control | dose: 3.13 mg/kg/injection, schedule: Q01DX009 (ip), vehicle: Klucel (hydroxypropylcellulose) (HPC) 99 % of control | dose: 6.25 mg/kg/injection, schedule: Q01DX009 (ip), vehicle: Klucel (hydroxypropylcellulose) (HPC) 99 % of control | [14] 99 % of control | [15] 97 % of control

O=C(OC(Cc1ccccc1)C(=O)O)c1ccc([N+](=O)[O-])cc1 (stereo unspecified)
inactive: dose: 50.0 mg/kg/injection, schedule: Q01DX001 (ip), vehicle: Klucel (hydroxypropylcellulose) (HPC) 97 % of control | dose: 100.0 mg/kg/injection, schedule: Q01DX001 (ip), vehicle: Klucel (hydroxypropylcellulose) (HPC) 111 % of control | dose: 200.0 mg/kg/injection, schedule: Q01DX001 (ip), vehicle: Klucel (hydroxypropylcellulose) (HPC) 109 % of control

CCCCCCCCCCCC[N+](C)(CCS(=O)(=O)[O-])Cc1ccccc1 (stereo unspecified)
inactive: [9] 108 % of control

CNc1cc[nH]c(=O)c1NC(C)=O
inactive: [16] 100 % of control | [17] 101 % of control | [18] 106 % of control

O=C(O)CC(NC(=O)CCl)c1cccs1 (stereo unspecified)
inactive: [1] 97 % of control | dose: 100.0 mg/kg/injection, schedule: Q01DX009 (ip), vehicle: saline 94 % of control | dose: 200.0 mg/kg/injection, schedule: Q01DX009 (ip), vehicle: saline 98 % of control

CC(C)CC(N)C(=O)NC(Cc1cnc[nH]1)C(=O)O (stereo not drawn) (H-Leu-His-OH; configuration not given here)
inactive: [16] 97 % of control | [17] 106 % of control | [18] 104 % of control

OCCCOc1ccc(OCCCO)cc1
inactive: dose: 60.0 mg/kg/injection, schedule: Q01DX005 (ip), vehicle: Klucel (hydroxypropylcellulose) (HPC) 100 % of control | dose: 120.0 mg/kg/injection, schedule: Q01DX005 (ip), vehicle: Klucel (hydroxypropylcellulose) (HPC) 99 % of control | dose: 240.0 mg/kg/injection, schedule: Q01DX005 (ip), vehicle: Klucel (hydroxypropylcellulose) (HPC) 103 % of control

N#CCc1ccccc1C(C#N)C(=O)CCC(=O)C(C#N)c1ccccc1CC#N (stereo unspecified)
inactive: [5] 104 % of control | [6] 103 % of control | [7] 102 % of control

N#C/C(=C/c1ccco1)c1ccccc1
inactive: [14] 95 % of control | [15] 88 % of control

C=CC(C)(C)c1c2c(c(OC)c3ccc(=O)oc13)C=CC(C)(C)O2
inactive: dose: 25.0 mg/kg/injection, schedule: Q01DX005 (ip), vehicle: saline with Tween-80 105 % of control | [8] 99 % of control and 94 % of control | [9] 96 % of control

CS(C)(=O)=Nc1ccc(Br)cc1
inactive: dose: 100.0 mg/kg/injection, schedule: Q04DX002 (ip), vehicle: saline with Tween-80 98 % of control | dose: 200.0 mg/kg/injection, schedule: Q04DX002 (ip), vehicle: saline with Tween-80 98 % of control | dose: 400.0 mg/kg/injection, schedule: Q04DX002 (ip), vehicle: saline with Tween-80 103 % of control

Cc1ccc(S(=O)(=O)C[n+]2ccc3ccccc3c2)cc1
inactive: [11] 98 % of control | dose: 100.0 mg/kg/injection, schedule: Q04DX003 (ip), vehicle: saline 114 % of control and 118 % of control | [12] 105 % of control | dose: 200.0 mg/kg/injection, schedule: Q04DX003 (ip), vehicle: saline 117 % of control | [13] 100 % of control

O=C(c1ccc([N+](=O)[O-])cc1)N1CCCSC1=S
inactive: [5] 107 % of control | [6] 98 % of control | [7] 101 % of control
